Measurements as given in patent US7118895B2, “Process for producing aglycon by using diglycosidase and flavor-improved food containing the aglycon and converting agent to be used in the process” (Amano Enzyme Inc., priority 2000, dated 2006).

Tested on: Crude diglycosidase
Experiment: Examination of pH in the conversion into isoflavone aglycons by diglycosidase using soybean materials
Format: biochemical, Penicillium multicolor IAM7153
Design: Decomposition efficiency of genistin family in soymilk / Decomposition efficiency of genistin family in defatted soybean / Decomposition efficiency of daidzin family in defatted soybean: concentration or dose not given beside the values
Conditions: for Decomposition efficiency of daidzin family in roasted soy flour: 55° C.
Method: A substrate solution of 450 μL was prepared by suspending 50 mg of each soybean material (roasted soy flour (manufactured by Fuji Shokuryo K.K.), soymilk (manufactured by Gitoh Shokuhin K.K.), defatted soybean (manufactured by Fuji Seiyu K.K.), concentrated soybean protein (manufactured by Fuji Seiyu K.K.)), and adjusting the pH to 2 to 11 with hydrochloric acid or sodium hydroxide. Each enzyme solution of pH 2–11 wherein diglycosidase activity of crude diglycosidase was adjusted to 1.88 AU/mL was added thereto in an amount of 50 μL and the whole was reacted at 55° C. at the total volume of 500 μL. To the reaction mixture was added 700 μL of ethanol after 0, 1, 3, and 6 hours of the reaction. After stirring and ultrasonication, the mixture was subjected to centrifugal separation at 15,000 rpm and 4° C. for 10 minutes. The supernatant was filtered through a filter and the existence of isoflavone glycosides and aglycon isoflavones contained in the reaction mixture was detected by HLPC (Tables 15 to 26).

[1] = pH4.8, heat treatment of enzyme: no, reaction time 0 h
[2] = pH4.8, heat treatment of enzyme: no, reaction time 1 h
[3] = pH4.8, heat treatment of enzyme: no, reaction time 3 h
[4] = pH4.8, heat treatment of enzyme: no, reaction time 6 h
[5] = pH4.8, heat treatment of enzyme: yes, reaction time 6 h
[6] = pH6.6, heat treatment of enzyme: no, reaction time 0 h
[7] = pH6.6, heat treatment of enzyme: no, reaction time 1 h
[8] = pH6.6, heat treatment of enzyme: no, reaction time 3 h
[9] = pH6.6, heat treatment of enzyme: no, reaction time 6 h
[10] = pH6.6, heat treatment of enzyme: yes, reaction time 6 h

## CC(=O)OC[C@H]1O[C@@H](Oc2ccc3c(=O)c(-c4ccc(O)cc4)coc3c2)[C@H](O)[C@@H](O)[C@@H]1O [acetyldaidzin, 6″-O-acetyldaidzin]
pH1.6, heat treatment of enzyme: no, reaction time 0 h
  Decomposition efficiency of daidzin family in concentrated soybean protein: 44.5%
pH1.6, heat treatment of enzyme: no, reaction time 1 h
  Decomposition efficiency of daidzin family in concentrated soybean protein: 43.7%
pH1.6, heat treatment of enzyme: no, reaction time 3 h
  Decomposition efficiency of daidzin family in concentrated soybean protein: 41.7%
pH1.6, heat treatment of enzyme: no, reaction time 6 h
  Decomposition efficiency of daidzin family in concentrated soybean protein: 39.4%
pH1.6, heat treatment of enzyme: yes, reaction time 6 h
  Decomposition efficiency of daidzin family in concentrated soybean protein: 38.1%
pH2, heat treatment of enzyme no, reaction time 0 h
  Decomposition efficiency of daidzin family in roasted soy flour: 47.4
pH2, heat treatment of enzyme no, reaction time 1 h
  Decomposition efficiency of daidzin family in roasted soy flour: 46.9
pH2, heat treatment of enzyme no, reaction time 3 h
  Decomposition efficiency of daidzin family in roasted soy flour: 45.0
pH2, heat treatment of enzyme no, reaction time 6 h
  Decomposition efficiency of daidzin family in roasted soy flour: 42.4
pH2, heat treatment of enzyme yes, reaction time 6 h
  Decomposition efficiency of daidzin family in roasted soy flour: 42.4
pH2.3, heat treatment of enzyme: no, reaction time 0 h
  Decomposition efficiency of daidzin family in soymilk: not detected
pH2.3, heat treatment of enzyme: no, reaction time 1 h
  Decomposition efficiency of daidzin family in soymilk: not detected
pH2.3, heat treatment of enzyme: no, reaction time 3 h
  Decomposition efficiency of daidzin family in soymilk: not detected
pH2.3, heat treatment of enzyme: no, reaction time 6 h
  Decomposition efficiency of daidzin family in soymilk: not detected
pH2.3, heat treatment of enzyme: yes, reaction time 6 h
  Decomposition efficiency of daidzin family in soymilk: not detected
pH2.6, heat treatment of enzyme: no, reaction time 0 h
  Decomposition efficiency of daidzin family in defatted soybean: not detected
pH2.6, heat treatment of enzyme: no, reaction time 1 h
  Decomposition efficiency of daidzin family in defatted soybean: not detected
pH2.6, heat treatment of enzyme: no, reaction time 3 h
  Decomposition efficiency of daidzin family in defatted soybean: not detected
pH2.6, heat treatment of enzyme: no, reaction time 6 h
  Decomposition efficiency of daidzin family in defatted soybean: not detected
pH2.6, heat treatment of enzyme: yes, reaction time 6 h
  Decomposition efficiency of daidzin family in defatted soybean: not detected
pH2.7, heat treatment of enzyme: no, reaction time 0 h
  Decomposition efficiency of daidzin family in concentrated soybean protein: 44.5%
pH2.7, heat treatment of enzyme: no, reaction time 1 h
  Decomposition efficiency of daidzin family in concentrated soybean protein: 46.4%
pH2.7, heat treatment of enzyme: no, reaction time 3 h
  Decomposition efficiency of daidzin family in concentrated soybean protein: 46.0%
pH2.7, heat treatment of enzyme: no, reaction time 6 h
  Decomposition efficiency of daidzin family in concentrated soybean protein: 45.8%
pH2.7, heat treatment of enzyme: yes, reaction time 6 h
  Decomposition efficiency of daidzin family in concentrated soybean protein: 43.9%
pH3, heat treatment of enzyme no, reaction time 0 h
  Decomposition efficiency of daidzin family in roasted soy flour: 47.4
pH3, heat treatment of enzyme no, reaction time 1 h
  Decomposition efficiency of daidzin family in roasted soy flour: 46.0
pH3, heat treatment of enzyme no, reaction time 3 h
  Decomposition efficiency of daidzin family in roasted soy flour: 39.6
pH3, heat treatment of enzyme no, reaction time 6 h
  Decomposition efficiency of daidzin family in roasted soy flour: 40.7
pH3, heat treatment of enzyme yes, reaction time 6 h
  Decomposition efficiency of daidzin family in roasted soy flour: 47.4
pH3.4, heat treatment of enzyme: no, reaction time 0 h
  Decomposition efficiency of daidzin family in defatted soybean: not detected
pH3.4, heat treatment of enzyme: no, reaction time 1 h
  Decomposition efficiency of daidzin family in defatted soybean: not detected
pH3.4, heat treatment of enzyme: no, reaction time 3 h
  Decomposition efficiency of daidzin family in defatted soybean: not detected
pH3.4, heat treatment of enzyme: no, reaction time 6 h
  Decomposition efficiency of daidzin family in defatted soybean: not detected
pH3.4, heat treatment of enzyme: yes, reaction time 6 h
  Decomposition efficiency of daidzin family in defatted soybean: not detected
pH3.5, heat treatment of enzyme: no, reaction time 0 h
  Decomposition efficiency of daidzin family in soymilk: not detected
pH3.5, heat treatment of enzyme: no, reaction time 1 h
  Decomposition efficiency of daidzin family in soymilk: not detected
pH3.5, heat treatment of enzyme: no, reaction time 3 h
  Decomposition efficiency of daidzin family in soymilk: not detected
pH3.5, heat treatment of enzyme: no, reaction time 6 h
  Decomposition efficiency of daidzin family in soymilk: not detected
pH3.5, heat treatment of enzyme: yes, reaction time 6 h
  Decomposition efficiency of daidzin family in soymilk: not detected
pH3.7, heat treatment of enzyme: no, reaction time 0 h
  Decomposition efficiency of daidzin family in concentrated soybean protein: 44.6%
pH3.7, heat treatment of enzyme: no, reaction time 1 h
  Decomposition efficiency of daidzin family in concentrated soybean protein: 41.6%
pH3.7, heat treatment of enzyme: no, reaction time 3 h
  Decomposition efficiency of daidzin family in concentrated soybean protein: 33.0%
pH3.7, heat treatment of enzyme: no, reaction time 6 h
  Decomposition efficiency of daidzin family in concentrated soybean protein: 25.2%
pH3.7, heat treatment of enzyme: yes, reaction time 6 h
  Decomposition efficiency of daidzin family in concentrated soybean protein: 44.4%
pH4, heat treatment of enzyme no, reaction time 0 h
  Decomposition efficiency of daidzin family in roasted soy flour: 47.7
pH4, heat treatment of enzyme no, reaction time 1 h
  Decomposition efficiency of daidzin family in roasted soy flour: 34.4
pH4, heat treatment of enzyme no, reaction time 3 h
  Decomposition efficiency of daidzin family in roasted soy flour: 20.5
pH4, heat treatment of enzyme no, reaction time 6 h
  Decomposition efficiency of daidzin family in roasted soy flour: 11.1
pH4, heat treatment of enzyme yes, reaction time 6 h
  Decomposition efficiency of daidzin family in roasted soy flour: 47.9
[1]
  Decomposition efficiency of daidzin family in defatted soybean: not detected
  Decomposition efficiency of daidzin family in soymilk: not detected
[2]
  Decomposition efficiency of daidzin family in defatted soybean: not detected
  Decomposition efficiency of daidzin family in soymilk: not detected
[3]
  Decomposition efficiency of daidzin family in defatted soybean: not detected
  Decomposition efficiency of daidzin family in soymilk: not detected
[4]
  Decomposition efficiency of daidzin family in defatted soybean: not detected
  Decomposition efficiency of daidzin family in soymilk: not detected
[5]
  Decomposition efficiency of daidzin family in defatted soybean: not detected
  Decomposition efficiency of daidzin family in soymilk: not detected
pH5, heat treatment of enzyme no, reaction time 0 h
  Decomposition efficiency of daidzin family in roasted soy flour: 47.7
pH5, heat treatment of enzyme no, reaction time 1 h
  Decomposition efficiency of daidzin family in roasted soy flour: 38.5
pH5, heat treatment of enzyme no, reaction time 3 h
  Decomposition efficiency of daidzin family in roasted soy flour: 24.7
pH5, heat treatment of enzyme no, reaction time 6 h
  Decomposition efficiency of daidzin family in roasted soy flour: 15.2
pH5, heat treatment of enzyme yes, reaction time 6 h
  Decomposition efficiency of daidzin family in roasted soy flour: 45.0
pH5.1, heat treatment of enzyme: no, reaction time 0 h
  Decomposition efficiency of daidzin family in concentrated soybean protein: 44.6%
pH5.1, heat treatment of enzyme: no, reaction time 1 h
  Decomposition efficiency of daidzin family in concentrated soybean protein: 43.4%
pH5.1, heat treatment of enzyme: no, reaction time 3 h
  Decomposition efficiency of daidzin family in concentrated soybean protein: 37.0%
pH5.1, heat treatment of enzyme: no, reaction time 6 h
  Decomposition efficiency of daidzin family in concentrated soybean protein: 31.2%
pH5.1, heat treatment of enzyme: yes, reaction time 6 h
  Decomposition efficiency of daidzin family in concentrated soybean protein: 43.4%
pH5.4, heat treatment of enzyme: no, reaction time 0 h
  Decomposition efficiency of daidzin family in defatted soybean: not detected
pH5.4, heat treatment of enzyme: no, reaction time 1 h
  Decomposition efficiency of daidzin family in defatted soybean: not detected
pH5.4, heat treatment of enzyme: no, reaction time 3 h
  Decomposition efficiency of daidzin family in defatted soybean: not detected
pH5.4, heat treatment of enzyme: no, reaction time 6 h
  Decomposition efficiency of daidzin family in defatted soybean: not detected
pH5.4, heat treatment of enzyme: yes, reaction time 6 h
  Decomposition efficiency of daidzin family in defatted soybean: not detected
pH6.2, heat treatment of enzyme: no, reaction time 0 h
  Decomposition efficiency of daidzin family in soymilk: not detected
pH6.2, heat treatment of enzyme: no, reaction time 1 h
  Decomposition efficiency of daidzin family in soymilk: not detected
pH6.2, heat treatment of enzyme: no, reaction time 3 h
  Decomposition efficiency of daidzin family in soymilk: not detected
pH6.2, heat treatment of enzyme: no, reaction time 6 h
  Decomposition efficiency of daidzin family in soymilk: not detected
pH6.2, heat treatment of enzyme: yes, reaction time 6 h
  Decomposition efficiency of daidzin family in soymilk: not detected
pH6.5, heat treatment of enzyme no, reaction time 0 h
  Decomposition efficiency of daidzin family in roasted soy flour: 48.2
pH6.5, heat treatment of enzyme no, reaction time 1 h
  Decomposition efficiency of daidzin family in roasted soy flour: 45.4
pH6.5, heat treatment of enzyme no, reaction time 3 h
  Decomposition efficiency of daidzin family in roasted soy flour: 39.2
pH6.5, heat treatment of enzyme no, reaction time 6 h
  Decomposition efficiency of daidzin family in roasted soy flour: 34.4
pH6.5, heat treatment of enzyme yes, reaction time 6 h
  Decomposition efficiency of daidzin family in roasted soy flour: 43.4
[6]
  Decomposition efficiency of daidzin family in concentrated soybean protein: 44.8%
  Decomposition efficiency of daidzin family in defatted soybean: not detected
[7]
  Decomposition efficiency of daidzin family in concentrated soybean protein: 43.9%
  Decomposition efficiency of daidzin family in defatted soybean: not detected
[8]
  Decomposition efficiency of daidzin family in concentrated soybean protein: 42.9%
  Decomposition efficiency of daidzin family in defatted soybean: not detected
[9]
  Decomposition efficiency of daidzin family in concentrated soybean protein: 41.2%
  Decomposition efficiency of daidzin family in defatted soybean: not detected
[10]
  Decomposition efficiency of daidzin family in concentrated soybean protein: 41.8%
  Decomposition efficiency of daidzin family in defatted soybean: not detected
pH7.2, heat treatment of enzyme: no, reaction time 0 h
  Decomposition efficiency of daidzin family in soymilk: not detected
pH7.2, heat treatment of enzyme: no, reaction time 1 h
  Decomposition efficiency of daidzin family in soymilk: not detected
pH7.2, heat treatment of enzyme: no, reaction time 3 h
  Decomposition efficiency of daidzin family in soymilk: not detected
pH7.2, heat treatment of enzyme: no, reaction time 6 h
  Decomposition efficiency of daidzin family in soymilk: not detected
pH7.2, heat treatment of enzyme: yes, reaction time 6 h
  Decomposition efficiency of daidzin family in soymilk: not detected
pH7.8, heat treatment of enzyme: no, reaction time 0 h
  Decomposition efficiency of daidzin family in defatted soybean: not detected
pH7.8, heat treatment of enzyme: no, reaction time 1 h
  Decomposition efficiency of daidzin family in defatted soybean: not detected
pH7.8, heat treatment of enzyme: no, reaction time 3 h
  Decomposition efficiency of daidzin family in defatted soybean: not detected
pH7.8, heat treatment of enzyme: no, reaction time 6 h
  Decomposition efficiency of daidzin family in defatted soybean: not detected
pH7.8, heat treatment of enzyme: yes, reaction time 6 h
  Decomposition efficiency of daidzin family in defatted soybean: not detected
pH8.5, heat treatment of enzyme no, reaction time 0 h
  Decomposition efficiency of daidzin family in roasted soy flour: 42.1
pH8.5, heat treatment of enzyme no, reaction time 1 h
  Decomposition efficiency of daidzin family in roasted soy flour: 42.7
pH8.5, heat treatment of enzyme no, reaction time 3 h
  Decomposition efficiency of daidzin family in roasted soy flour: 40.3
pH8.5, heat treatment of enzyme no, reaction time 6 h
  Decomposition efficiency of daidzin family in roasted soy flour: 38.0
pH8.5, heat treatment of enzyme yes, reaction time 6 h
  Decomposition efficiency of daidzin family in roasted soy flour: 37.3
pH8.6, heat treatment of enzyme: no, reaction time 0 h
  Decomposition efficiency of daidzin family in concentrated soybean protein: 40.7%
pH8.6, heat treatment of enzyme: no, reaction time 1 h
  Decomposition efficiency of daidzin family in concentrated soybean protein: 39.2%
pH8.6, heat treatment of enzyme: no, reaction time 3 h
  Decomposition efficiency of daidzin family in concentrated soybean protein: 39.0%
pH8.6, heat treatment of enzyme: no, reaction time 6 h
  Decomposition efficiency of daidzin family in concentrated soybean protein: 38.1%
pH8.6, heat treatment of enzyme: yes, reaction time 6 h
  Decomposition efficiency of daidzin family in concentrated soybean protein: 37.7%
pH11.6, heat treatment of enzyme: no, reaction time 0 h
  Decomposition efficiency of daidzin family in soymilk: not detected
pH11.6, heat treatment of enzyme: no, reaction time 1 h
  Decomposition efficiency of daidzin family in soymilk: not detected
pH11.6, heat treatment of enzyme: no, reaction time 3 h
  Decomposition efficiency of daidzin family in soymilk: not detected
pH11.6, heat treatment of enzyme: no, reaction time 6 h
  Decomposition efficiency of daidzin family in soymilk: not detected
pH11.6, heat treatment of enzyme: yes, reaction time 6 h
  Decomposition efficiency of daidzin family in soymilk: not detected
